According to ChEMBL document CHEMBL3044786, “Synthesis and nematocidal activity of ascaridole derivatives against Meloidogyne incognita and Aphelenchoides besseyi” (J Pestic Sci, 2007):
Converted amounts (≈) assume the structure as drawn.

Columns and labels:
Aphelenchoides besseyi [1] = test: Nematocidal activity against Aphelenchoides besseyi assessed as mortality after 24 hr; assay type: functional
Meloidogyne incognita [2] = test: Nematocidal activity against Meloidogyne incognita (root-knot nematode) assessed as mortality at 100 ug/ml after 24 hr; assay type: functional
Meloidogyne incognita [3] = test: Nematocidal activity against Meloidogyne incognita (root-knot nematode) assessed as mortality after 24 hr; assay type: functional
Aphelenchoides besseyi [4] = test: Nematocidal activity against Aphelenchoides besseyi assessed as mortality at 200 ug/ml after 24 hr; assay type: functional
[5] = Toxicity in Rattus norvegicus (rat); assay type: organism-based; settings: in vivo, read-out: LC50 (the source's name)

SMILES	LC50 (Aphelenchoides besseyi [1]) [µg/mL]	mortality at 100 µg/mL (Meloidogyne incognita [2]) [%]	LC50 (Meloidogyne incognita [3]) [µg/mL]	mortality at 200 µg/mL (Aphelenchoides besseyi [4]) [%]	LD50 [5] [mg/kg]
CC1=C[C@H]2OO[C@@H]1C[C@@H]2C(C)C	69 (≈ 410 µM)	100	25 (≈ 149 µM)	–	–
CC1=C[C@@H]2OO[C@H]1C[C@@H]2C(C)C	110 (≈ 654 µM)	100	51 (≈ 303 µM)	–	–
C=C(C)[C@H]1C[C@H]2OO[C@@H]1C=C2C	21 (≈ 126 µM)	100	12 (≈ 72.2 µM)	–	–
C=C(C)[C@H]1C[C@@H]2OO[C@H]1C=C2C	50 (≈ 301 µM)	100	23 (≈ 138 µM)	–	–
C=C(C)[C@H]1C[C@H]2OO[C@@H]1C(OC(C)=O)=C2C	302 (≈ 1350 µM)	100	50 (≈ 223 µM)	< 50	–
C=C(C)[C@H]1C[C@@H]2OO[C@H]1C(OC(C)=O)=C2C	306 (≈ 1360 µM)	100	51 (≈ 227 µM)	–	–
CC(C)C12C=CC(C(=O)O)(CC1)OO2 (stereo not drawn)	4 (≈ 20.2 µM)	100	2 (≈ 10.1 µM)	100	–
CC(C)C12C=CC(CO)(CC1)OO2 (stereo not drawn)	402 (≈ 2180 µM)	100	55 (≈ 299 µM)	< 50	–
COC(=O)C12C=CC(C(C)C)(CC1)OO2 (stereo not drawn)	2 (≈ 9.42 µM)	100	2 (≈ 9.42 µM)	100	–
CC(C)C12C=CC(C)(CC1)OO2 (stereo not drawn) [ASCARIDOLE]	365 (≈ 2170 µM)	100	52 (≈ 309 µM)	< 50	–
CNC(=O)O/N=C(\SC)C(=O)N(C)C [OXAMYL]	0.1 (≈ 0.456 µM)	–	0.07 (≈ 0.319 µM)	–	3.1
